PMC5681660, “Reduced hepatitis B and D viral entry using clinically applied drugs as novel inhibitors of the bile acid transporter NTCP” (Scientific Reports, 2017)
Structures can show the parent of a compound that is named as a salt. Where two headings read alike, the source gives them in different places.

Tests used:
human NTCP [1] = target: T1, human NTCP (Homo sapiens, UniProt Q14973); assay: Screening fluorescent competitive Myrcludex B-FITC binding assay (96-well, 10 µM drug)
T1 sequence (Q14973 1-349): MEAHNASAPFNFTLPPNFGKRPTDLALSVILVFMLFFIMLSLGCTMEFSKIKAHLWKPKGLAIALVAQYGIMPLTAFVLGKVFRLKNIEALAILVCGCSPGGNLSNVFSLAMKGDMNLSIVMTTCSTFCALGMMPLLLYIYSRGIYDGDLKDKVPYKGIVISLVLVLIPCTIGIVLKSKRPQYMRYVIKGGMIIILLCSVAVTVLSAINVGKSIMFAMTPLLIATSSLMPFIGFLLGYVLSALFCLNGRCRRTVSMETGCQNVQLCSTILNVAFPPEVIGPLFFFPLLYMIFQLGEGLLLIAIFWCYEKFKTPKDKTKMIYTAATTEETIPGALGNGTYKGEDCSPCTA

human NTCP [2] = target: T1, human NTCP; assay: Screening taurocholate uptake assay (96-well, [14C]taurocholate, 10 µM drug)
[3] = screen, 10 µM drug, Myrcludex B-FITC binding
[4] = combined ranking from functional and binding screening assays
[5] = screen, 10 µM drug, taurocholate uptake
[6] = Prestwick library screen, Myrcludex B-FITC binding, 10 µM drug
[7] = Prestwick library screen, taurocholate uptake, 10 µM drug
[8] = ranking score beside the functional and binding assay B-scores of the screen
[9] = Prestwick library screen, 10 µM drug, B-score of Myrcludex B-FITC binding
[10] = Prestwick library screen, 10 µM drug, B-score of taurocholate uptake
[11] = combined ranking from functional and binding assay B-scores

SMILES	B-score binding assay (human NTCP [1]; [3])	Ranking score (human NTCP [2]; [4])	B-score functional assay (human NTCP [2]; [5])	B-score binding assay (human NTCP [1]; [6])	B-score functional assay (human NTCP [2]; [7])	Ranking score (human NTCP [2]; [8])	also measured
CC1(C)O[C@@H]2C[C@H]3[C@@H]4C[C@H](F)C5=CC(=O)CC[C@]5(C)[C@H]4[C@@H](O)C[C@]3(C)[C@]2(C(=O)CO)O1 [Flurandrenolide]	-0.083	407.676	-0.782	–	–	–	–
CC(C)C(=O)Nc1ccc([N+](=O)[O-])c(C(F)(F)F)c1 [Flutamide]	0.039	383.15	-1.233	–	–	–	–
CCC(=O)O[C@]1(C(=O)SCF)[C@H](C)C[C@H]2[C@@H]3C[C@H](F)C4=CC(=O)C=C[C@]4(C)[C@@]3(F)[C@@H](O)C[C@@]21C [Fluticasone propionate]	–	–	–	0.947	0.021	830.535	–
Nc1nc(=O)c2nc(CNc3ccc(C(=O)N[C@@H](CCC(=O)O)C(=O)O)cc3)cnc2[nH]1 [Folic acid]	-0.117	436.211	-0.57	–	–	–	–
Nc1nc(=O)c2c([nH]1)NCC(CNc1ccc(C(=O)N[C@@H](CCC(=O)[O-])C(=O)[O-])cc1)N2C=O.[Ca+2] (stereo partly drawn) [Folinic acid calcium salt]	–	–	–	0.117	0.369	806.918	–
Cc1cn[nH]c1 [Fomepizole]	–	–	–	-0.028	0.928	795.707	–
C[C@]12CCC(=O)C(O)=C1CC[C@@H]1[C@@H]2CC[C@]2(C)C(=O)CC[C@@H]12 [Formestane]	–	–	–	–	–	–	B-score binding assay (human NTCP [1]): -0.147; B-score functional assay (human NTCP [2]): -0.613; Ranking score (human NTCP [2]): 420.899
COc1ccc(C[C@@H](C)NC[C@H](O)c2ccc(O)c(NC=O)c2)cc1.COc1ccc(C[C@@H](C)NC[C@H](O)c2ccc(O)c(NC=O)c2)cc1.O=C(O)/C=C/C(=O)O [Formoterol fumarate]	–	–	–	-0.165	1.513	764.904	–
O=C(O)c1ccccc1OP(=O)(O)O [Fosfosal]	-0.072	393.853	-0.869	–	–	–	–
CCC(=O)O[C@@H](O[P@](=O)(CCCCc1ccccc1)CC(=O)N1C[C@H](C2CCCCC2)C[C@H]1C(=O)O)C(C)C [Fosinopril]	–	–	–	-0.621	3.318	655.924	–
C[C@]12CC[C@@H]3c4ccc(O)cc4C[C@@H](CCCCCCCCC[S+]([O-])CCCC(F)(F)C(F)(F)F)[C@H]3[C@@H]1CC[C@@H]2O (stereo partly drawn) [Fulvestrant]	–	–	–	-0.303	1.208	701.076	–
C/C(=C(/CCO)SSCC1CCCO1)N(C=O)Cc1cnc(C)nc1N.Cl (stereo not drawn) [Fursultiamine Hydrochloride]	–	–	–	–	–	–	B-score binding assay (human NTCP [1]): 0.087; B-score functional assay (human NTCP [2]): 1.116; Ranking score (human NTCP [2]): 897.109
Cl.Cl.Fc1ccc(C(OCCN2CCN(CCCc3ccccc3)CC2)c2ccc(F)cc2)cc1 [GBR 12909 dihydrochloride]	-0.172	416.575	-0.602	–	–	–	–
NCC1(CC(=O)O)CCCCC1 [Gabapentin]	0.068	428.131	-0.982	–	–	–	–
COc1ccc2c3c1O[C@H]1C[C@@H](O)C=C[C@@]31CCN(C)C2 [Galanthamine hydrobromide]	–	–	–	0.486	0.072	808.114	–
Nc1nc(O)c2ncn(COC(CO)CO)c2n1 [Ganciclovir]	0.144	278.51	-2.412	–	–	–	–
Nc1ccn([C@@H]2O[C@H](CO)[C@@H](O)C2(F)F)c(=O)n1 [Gemcitabine]	–	–	–	0.165	0.015	717.496	–
Cc1ccc(C)c(OCCCC(C)(C)C(=O)O)c1 [Gemfibrozil]	-2.286	289.348	0.85	–	–	–	–
C#C[C@]1(O)CC[C@H]2[C@@H]3CCC4=CC(=O)CCC4=C3C=C[C@@]21CC [Gestrinone]	-0.596	385.482	-0.358	–	–	–	–
Cl.O=C(OCC(O)CO)c1ccccc1Nc1ccnc2cc(Cl)ccc12 (stereo not drawn) [Glafenine hydrochloride]	–	–	–	–	–	–	B-score binding assay (human NTCP [1]; [9]): 3.077; B-score functional assay (human NTCP [2]; [10]): 0.341; Ranking score (human NTCP [2]; [11]): 1037.91
CCC1=C(C)CN(C(=O)NCCc2ccc(S(=O)(=O)NC(=O)N[C@H]3CC[C@H](C)CC3)cc2)C1=O [Glimepiride]	0.412	350.338	-1.888	–	–	–	–
Cc1cnc(C(=O)NCCc2ccc(S(=O)(=O)NC(=O)NC3CCCCC3)cc2)cn1 [Glipizide]	0.997	412.592	-1.639	–	–	–	–

SMILES	B-score binding assay (human NTCP [1]; [3])	Ranking score (human NTCP [2]; [4])	B-score functional assay (human NTCP [2]; [5])	B-score binding assay (human NTCP [1]; [6])	B-score functional assay (human NTCP [2]; [7])	Ranking score (human NTCP [2]; [8])	also measured
COc1ccc2c(c1)C(=O)N(CCc1ccc(S(=O)(=O)NC(=O)NC3CCCCC3)cc1)C(=O)C2(C)C [Gliquidone]	1.024	336.107	-2.316	–	–	–	–
CCC1(c2ccc(N)cc2)CCC(=O)NC1=O (stereo not drawn) [Glutethimide, para-amino]	–	–	–	-0.055	0.113	663.514	–
C[N+]1(C)CCC(OC(=O)C(O)(c2ccccc2)C2CCCC2)C1 (stereo not drawn) [Glycopyrrolate]	–	–	–	0.143	0.403	820.625	–
CN1C2CCCC1CC(NC(=O)c1nn(C)c3ccccc13)C2 (stereo not drawn) [Granisetron]	–	–	–	-0.067	0.526	726.756	–
COc1ccccc1O [Guaiacol]	–	–	–	0.94	-0.032	782.911	–
N=C(N)NCC1COC2(CCCCC2)O1.N=C(N)NCC1COC2(CCCCC2)O1.O=S(=O)(O)O (stereo not drawn) [Guanadrel sulfate]	0.27	326.821	-2.033	–	–	–	–
CCCCN(CCCC)CCC(O)c1cc2c(Cl)cc(Cl)cc2c2cc(C(F)(F)F)ccc12 (stereo not drawn) [Halofantrine hydrochloride]	-1.143	393.07	0.058	–	–	–	–
Oc1c(Cl)cc(Cl)c(Cl)c1Cc1c(O)c(Cl)cc(Cl)c1Cl [Hexachlorophene]	–	–	–	–	–	–	B-score binding assay (human NTCP [1]): 1.48; B-score functional assay (human NTCP [2]): -8.47; Ranking score (human NTCP [2]): 82.4136
C[N+](C)(C)CCCCCC[N+](C)(C)C.O.O.[Br-].[Br-] [Hexamethonium dibromide dihydrate]	–	–	–	0.191	-0.02	696.207	–
CC(CNC1CCCCC1)OC(=O)c1ccccc1 (stereo not drawn) [Hexylcaine hydrochloride]	-1.021	435.325	0.196	–	–	–	–
CN1CCCN(C(c2ccccc2)c2ccc(Cl)cc2)CC1.Cl.Cl (stereo not drawn) [Homochlorcyclizine dihydrochloride]	–	–	–	–	–	–	B-score binding assay (human NTCP [1]; [9]): 1.404; B-score functional assay (human NTCP [2]; [10]): 0.737; Ranking score (human NTCP [2]; [11]): 1053.65
CC1CC(OC(=O)c2ccccc2O)CC(C)(C)C1 (stereo not drawn) [Homosalate]	–	–	–	0.177	0.284	811.615	–
NS(=O)(=O)c1cc2c(cc1C(F)(F)F)NCNS2(=O)=O [Hydroflumethiazide]	–	–	–	–	–	–	B-score binding assay (human NTCP [1]; [9]): 0.137; B-score functional assay (human NTCP [2]; [10]): 0.664; Ranking score (human NTCP [2]; [11]): 856.507
CCN(CCO)CCCC(C)Nc1ccnc2cc(Cl)ccc12 (stereo not drawn) [Hydroxychloroquine sulfate]	–	–	–	0.139	0.168	775.907	–
OCCOCCN1CCN(C(c2ccccc2)c2ccc(Cl)cc2)CC1 (stereo not drawn) [Hydroxyzine dihydrochloride]	-1.7	394.018	1.371	–	–	–	–
Cc1cc(=O)oc2cc(O)ccc12 [Hymecromone]	0.036	448.437	-0.811	–	–	–	–
CC(C)C(=O)c1c(C(C)C)nn2ccccc12 [Ibudilast]	–	–	–	–	–	–	B-score binding assay (human NTCP [1]; [9]): 0.677; B-score functional assay (human NTCP [2]; [10]): 0.276; Ranking score (human NTCP [2]; [11]): 895.497
CCCCCCCN(CC)CCCC(O)c1ccc(NS(C)(=O)=O)cc1.CCCCCCCN(CC)CCCC(O)c1ccc(NS(C)(=O)=O)cc1.O=C(O)/C=C/C(=O)O (stereo not drawn) [Ibutilide fumarate]	–	–	–	0.907	0.035	835.048	–
CC(C(O)c1ccc(O)cc1)N1CCC(Cc2ccccc2)CC1.CC(C(O)c1ccc(O)cc1)N1CCC(Cc2ccccc2)CC1.O=C(O)C(O)C(O)C(=O)O (stereo not drawn) [Ifenprodil tartrate]	–	–	–	-0.263	1.465	727.635	–
O=P1(NCCCl)OCCCN1CCCl (stereo not drawn) [Ifosfamide]	-1.438	334.739	0.023	–	–	–	–
O=C(NCNC(=O)NC1C(=O)NC(=O)N1CO)NC1C(=O)NC(=O)N1CO (stereo not drawn) [Imidurea]	–	–	–	–	–	–	B-score binding assay (human NTCP [1]; [9]): 0.346; B-score functional assay (human NTCP [2]; [10]): 1.058; Ranking score (human NTCP [2]; [11]): 960.608
